Results from PubChem BioAssay (NCI).
“And” between values parts separate entries of the source, which are not always exact repeats. Equal values may be shown once.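 Protocol summary: plate cells (96-well), add compound at 5 concentrations, incubate 48 h, interpolate endpoints linearly. Abbreviation: GI50, concentration required for 50% inhibition of growth. Definition used: TGI = concentration required for complete inhibition of growth.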

system: PC-3 prostate; experiment: inhibition of tumour cell growth, NCI panel, 48 h

Compound	GI50	TGI
Cc1nc2sc(C(=O)Nc3cccc(Cl)c3C)c(N)c2cc1C(=O)/C=C/c1ccccc1	0.33 µM	1.54 µM
C=C1C(=O)O[C@H]2[C@H]1CC/C(CNC(=O)c1cc3cc(OC)ccc3[nH]1)=C\CC[C@@]1(C)O[C@@H]21	1.86 µM	4.04 µM
O=S(=O)(NC1=NCCN1C(=S)SN1CCn2c1nsc2=S)c1ccc(Br)cc1	30.8 µM	> 100 µM
CC(=O)N[C@H]1C=C[C@@H]2/C=C(C)/C=C/[C@@H](C)[C@H]([C@H](C)[C@H](O)[C@@H](C)NC(C)=O)OC(=O)/C=C/C=C(C)\C=C\[C@]2(C)C1	0.0202 µM and 0.0045 µM	4.65 µM and > 45 µM
O=C1c2ccccc2-c2c1c1ccccc1c(=O)n2CCCNCCCn1ccnc1	1.58 µM	9.75 µM
ClCc1cccc(Cn2cnc3c(NC45CC6CC(CC(C6)C4)C5)ncnc32)c1	19 µM	40.2 µM
CC(=O)CC(=O)Nc1ccc2ccccc2c1	–	> 100 µM
COC(=O)c1cc2c(cc1Cl)SC(N(N(C)C)S(=O)(=O)c1ccc(Br)s1)=NS2(=O)=O	16 µM	35.1 µM
O=c1c2cc(Cl)ccc2oc2ccc(OCCCCCN3CCCCC3)cc12	6.05 µM	12.7 µM
Cc1cc(I)cc(CN(C)CCCN2CCSCC2)c1O	29.8 µM	> 100 µM
O=C1c2ccccc2C(=O)N1CCCSc1ccccc1	–	> 100 µM
CCOC(=O)Nc1nc2ccc(Cn3cccc3)cc2[nH]1	–	> 38.2 µM
COc1cc(Nc2nccc(Nc3ccc4c(C)[nH]nc4c3)n2)cc(OC)c1OC	2.33 µM	> 20.5 µM
Nc1c(C(=O)c2ccc(Cl)cc2)sc(Nc2ccccc2)c1-c1nc2ccccc2s1	2.35 µM	> 100 µM
CCOC(=O)c1cc(C#N)c(=O)n(/N=C(\C)c2ccncc2)c1O	> 100 µM	> 100 µM
COc1ccc(/C=N\NC(=O)CN2CCN(c3cc4c(cc3F)c(=O)c(C(=O)N/N=C/c3ccc(OC)c(OC)c3)cn4C3CC3)CC2)cc1OC	2.76 µM	9.53 µM

system: SW-620 colon; experiment: inhibition of tumour cell growth, NCI panel, 48 h

Compound	GI50	TGI
Cc1nc2sc(C(=O)Nc3cccc(Cl)c3C)c(N)c2cc1C(=O)/C=C/c1ccccc1	0.206 µM	1.32 µM
C=C1C(=O)O[C@H]2[C@H]1CC/C(CNC(=O)c1cc3cc(OC)ccc3[nH]1)=C\CC[C@@]1(C)O[C@@H]21	1.15 µM	2.77 µM
O=S(=O)(NC1=NCCN1C(=S)SN1CCn2c1nsc2=S)c1ccc(Br)cc1	24.2 µM	73 µM
CC(=O)N[C@H]1C=C[C@@H]2/C=C(C)/C=C/[C@@H](C)[C@H]([C@H](C)[C@H](O)[C@@H](C)NC(C)=O)OC(=O)/C=C/C=C(C)\C=C\[C@]2(C)C1	0.0178 µM and 0.0045 µM	4.65 µM and > 45 µM
O=C1c2ccccc2-c2c1c1ccccc1c(=O)n2CCCNCCCn1ccnc1	0.24 µM	1.82 µM
ClCc1cccc(Cn2cnc3c(NC45CC6CC(CC(C6)C4)C5)ncnc32)c1	19.1 µM	46.2 µM
CC(=O)CC(=O)Nc1ccc2ccccc2c1	–	> 100 µM
COC(=O)c1cc2c(cc1Cl)SC(N(N(C)C)S(=O)(=O)c1ccc(Br)s1)=NS2(=O)=O	18.6 µM	36.3 µM
O=c1c2cc(Cl)ccc2oc2ccc(OCCCCCN3CCCCC3)cc12	1.55 µM	5.09 µM
Cc1cc(I)cc(CN(C)CCCN2CCSCC2)c1O	19.4 µM	38.9 µM
O=C1c2ccccc2C(=O)N1CCCSc1ccccc1	–	> 100 µM
CCOC(=O)Nc1nc2ccc(Cn3cccc3)cc2[nH]1	–	> 100 µM
COc1cc(Nc2nccc(Nc3ccc4c(C)[nH]nc4c3)n2)cc(OC)c1OC	2.71 µM	15.1 µM
Nc1c(C(=O)c2ccc(Cl)cc2)sc(Nc2ccccc2)c1-c1nc2ccccc2s1	1.2 µM	> 100 µM
CCOC(=O)c1cc(C#N)c(=O)n(/N=C(\C)c2ccncc2)c1O	> 100 µM	> 100 µM
COc1ccc(/C=N\NC(=O)CN2CCN(c3cc4c(cc3F)c(=O)c(C(=O)N/N=C/c3ccc(OC)c(OC)c3)cn4C3CC3)CC2)cc1OC	3.33 µM	16.8 µM

system: SK-OV-3 ovarian; experiment: inhibition of tumour cell growth, NCI panel, 48 h

Compound	GI50	TGI
Cc1nc2sc(C(=O)Nc3cccc(Cl)c3C)c(N)c2cc1C(=O)/C=C/c1ccccc1	1.44 µM	13 µM
C=C1C(=O)O[C@H]2[C@H]1CC/C(CNC(=O)c1cc3cc(OC)ccc3[nH]1)=C\CC[C@@]1(C)O[C@@H]21	11.2 µM	23.5 µM
O=S(=O)(NC1=NCCN1C(=S)SN1CCn2c1nsc2=S)c1ccc(Br)cc1	37.8 µM	> 100 µM
CC(=O)N[C@H]1C=C[C@@H]2/C=C(C)/C=C/[C@@H](C)[C@H]([C@H](C)[C@H](O)[C@@H](C)NC(C)=O)OC(=O)/C=C/C=C(C)\C=C\[C@]2(C)C1	0.0117 µM and 0.0045 µM	4.65 µM and > 45 µM
O=C1c2ccccc2-c2c1c1ccccc1c(=O)n2CCCNCCCn1ccnc1	3.16 µM	17.7 µM
ClCc1cccc(Cn2cnc3c(NC45CC6CC(CC(C6)C4)C5)ncnc32)c1	21.1 µM	42.3 µM
CC(=O)CC(=O)Nc1ccc2ccccc2c1	–	> 100 µM
COC(=O)c1cc2c(cc1Cl)SC(N(N(C)C)S(=O)(=O)c1ccc(Br)s1)=NS2(=O)=O	28 µM	66.7 µM
O=c1c2cc(Cl)ccc2oc2ccc(OCCCCCN3CCCCC3)cc12	6.96 µM	13.4 µM
Cc1cc(I)cc(CN(C)CCCN2CCSCC2)c1O	35.4 µM	> 100 µM
O=C1c2ccccc2C(=O)N1CCCSc1ccccc1	–	> 100 µM
CCOC(=O)Nc1nc2ccc(Cn3cccc3)cc2[nH]1	–	> 100 µM
COc1cc(Nc2nccc(Nc3ccc4c(C)[nH]nc4c3)n2)cc(OC)c1OC	1.53 µM	6.64 µM
Nc1c(C(=O)c2ccc(Cl)cc2)sc(Nc2ccccc2)c1-c1nc2ccccc2s1	1.99 µM	19 µM
CCOC(=O)c1cc(C#N)c(=O)n(/N=C(\C)c2ccncc2)c1O	> 100 µM	> 100 µM
COc1ccc(/C=N\NC(=O)CN2CCN(c3cc4c(cc3F)c(=O)c(C(=O)N/N=C/c3ccc(OC)c(OC)c3)cn4C3CC3)CC2)cc1OC	3.22 µM	9.67 µM

system: OVCAR-5 ovarian; experiment: inhibition of tumour cell growth, NCI panel, 48 h

Compound	GI50	TGI
Cc1nc2sc(C(=O)Nc3cccc(Cl)c3C)c(N)c2cc1C(=O)/C=C/c1ccccc1	0.714 µM	1.74 µM
C=C1C(=O)O[C@H]2[C@H]1CC/C(CNC(=O)c1cc3cc(OC)ccc3[nH]1)=C\CC[C@@]1(C)O[C@@H]21	2.19 µM	7.35 µM
O=S(=O)(NC1=NCCN1C(=S)SN1CCn2c1nsc2=S)c1ccc(Br)cc1	> 100 µM	> 100 µM
CC(=O)N[C@H]1C=C[C@@H]2/C=C(C)/C=C/[C@@H](C)[C@H]([C@H](C)[C@H](O)[C@@H](C)NC(C)=O)OC(=O)/C=C/C=C(C)\C=C\[C@]2(C)C1	14.1 µM	> 45 µM
O=C1c2ccccc2-c2c1c1ccccc1c(=O)n2CCCNCCCn1ccnc1	1.55 µM	4.93 µM
ClCc1cccc(Cn2cnc3c(NC45CC6CC(CC(C6)C4)C5)ncnc32)c1	19.2 µM	36.4 µM
CC(=O)CC(=O)Nc1ccc2ccccc2c1	–	> 100 µM
COC(=O)c1cc2c(cc1Cl)SC(N(N(C)C)S(=O)(=O)c1ccc(Br)s1)=NS2(=O)=O	29.8 µM	81.1 µM
O=c1c2cc(Cl)ccc2oc2ccc(OCCCCCN3CCCCC3)cc12	5.17 µM	11.2 µM
Cc1cc(I)cc(CN(C)CCCN2CCSCC2)c1O	29.1 µM	92.4 µM
O=C1c2ccccc2C(=O)N1CCCSc1ccccc1	–	> 100 µM
CCOC(=O)Nc1nc2ccc(Cn3cccc3)cc2[nH]1	–	> 100 µM
COc1cc(Nc2nccc(Nc3ccc4c(C)[nH]nc4c3)n2)cc(OC)c1OC	1.8 µM	20.8 µM
Nc1c(C(=O)c2ccc(Cl)cc2)sc(Nc2ccccc2)c1-c1nc2ccccc2s1	> 100 µM	> 100 µM
CCOC(=O)c1cc(C#N)c(=O)n(/N=C(\C)c2ccncc2)c1O	> 100 µM	> 100 µM
COc1ccc(/C=N\NC(=O)CN2CCN(c3cc4c(cc3F)c(=O)c(C(=O)N/N=C/c3ccc(OC)c(OC)c3)cn4C3CC3)CC2)cc1OC	2.39 µM	6.94 µM

system: MOLT-4 leukemia; experiment: inhibition of tumour cell growth, NCI panel, 48 h

Compound	GI50	TGI
Cc1nc2sc(C(=O)Nc3cccc(Cl)c3C)c(N)c2cc1C(=O)/C=C/c1ccccc1	0.76 µM	> 50 µM
C=C1C(=O)O[C@H]2[C@H]1CC/C(CNC(=O)c1cc3cc(OC)ccc3[nH]1)=C\CC[C@@]1(C)O[C@@H]21	2.08 µM	6.85 µM
O=S(=O)(NC1=NCCN1C(=S)SN1CCn2c1nsc2=S)c1ccc(Br)cc1	27.1 µM	> 100 µM
CC(=O)N[C@H]1C=C[C@@H]2/C=C(C)/C=C/[C@@H](C)[C@H]([C@H](C)[C@H](O)[C@@H](C)NC(C)=O)OC(=O)/C=C/C=C(C)\C=C\[C@]2(C)C1	11 µM	> 45 µM
O=C1c2ccccc2-c2c1c1ccccc1c(=O)n2CCCNCCCn1ccnc1	0.0267 µM	0.358 µM
ClCc1cccc(Cn2cnc3c(NC45CC6CC(CC(C6)C4)C5)ncnc32)c1	9.92 µM	36 µM
CC(=O)CC(=O)Nc1ccc2ccccc2c1	–	> 100 µM
COC(=O)c1cc2c(cc1Cl)SC(N(N(C)C)S(=O)(=O)c1ccc(Br)s1)=NS2(=O)=O	15.5 µM	36.1 µM
O=c1c2cc(Cl)ccc2oc2ccc(OCCCCCN3CCCCC3)cc12	3.16 µM	10.7 µM
Cc1cc(I)cc(CN(C)CCCN2CCSCC2)c1O	19.4 µM	41.6 µM
O=C1c2ccccc2C(=O)N1CCCSc1ccccc1	–	> 100 µM
CCOC(=O)Nc1nc2ccc(Cn3cccc3)cc2[nH]1	–	> 100 µM
COc1cc(Nc2nccc(Nc3ccc4c(C)[nH]nc4c3)n2)cc(OC)c1OC	4.87 µM	19.2 µM
Nc1c(C(=O)c2ccc(Cl)cc2)sc(Nc2ccccc2)c1-c1nc2ccccc2s1	12.3 µM	> 89.6 µM
CCOC(=O)c1cc(C#N)c(=O)n(/N=C(\C)c2ccncc2)c1O	> 100 µM	> 100 µM
COc1ccc(/C=N\NC(=O)CN2CCN(c3cc4c(cc3F)c(=O)c(C(=O)N/N=C/c3ccc(OC)c(OC)c3)cn4C3CC3)CC2)cc1OC	3.56 µM	> 100 µM
